Where two headings read alike, the source gives them in different places.
Tests used:
Type in all cases: in vivo
[1] = system: Polygonum convolvulus (POLCO); experiment: Pre-emergence herbicidal action against POLCO
Method in brief: (§1)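 Greenhouse pot trial: seeds sown, soil-covered, sprayed before emergence with compound in water (0.5% additive; 600 l/ha; ≤320 g/ha). Scoring visual, ~3 weeks, 0–100% scale vs untreated.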

[2] = system: Amaranthus retroflexus (AMARE); experiment: Post-emergence herbicidal action against AMARE
Method in brief: (§2)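 Rates were 320 g/ha or below, applied as aqueous WP/EC spray with 0.5% additive (600 l/ha) onto one-leaf-stage plants. About 3 weeks later in the greenhouse, damage was scored visually against untreated plants on a 0–100% scale, where 100% means plants died.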

Setaria viridis (SETVI) [3] = experiment: Pre-emergence herbicidal action against SETVI
Method in brief: as §1

[4] = system: Echinochloa crus-galli (ECHCG); experiment: Pre-emergence herbicidal action against ECHCG; conditions: dosage 320 g/ha
Method in brief: as §1

[5] = system: Alopecurus myosuroides (ALOMY); experiment: Pre-emergence herbicidal action against ALOMY; conditions: scored visually after about 3 weeks, 100% = plants have died
Method in brief: as §1

[6] = system: Matricaria inodora (MATIN); experiment: Pre-emergence herbicidal action against MATIN
Method in brief: as §1

[7] = system: Verconica persica (VERPE); experiment: Post-emergence herbicidal action against VERPE
Method in brief: as §2

[8] = system: Polygonum convolvulus (POLCO); experiment: Post-emergence herbicidal action against POLCO; conditions: dosage 320 g/ha
Method in brief: as §2

Setaria viridis (SETVI) [9] = experiment: Post-emergence herbicidal action against SETVI
Method in brief: as §2

[10] = system: Echinochloa crus-galli (ECHCG); experiment: Post-emergence herbicidal action against ECHCG; conditions: dosage 320 g/ha
Method in brief: as §2

Lolium rigidum (LOLRI) [11] = experiment: Post-emergence herbicidal action against LOLRI; conditions: dosage 320 g/ha
Method in brief: as §2

[12] = system: Amaranthus retroflexus (AMARE); experiment: Pre-emergence herbicidal action against AMARE; conditions: visual scoring after about 3 weeks vs untreated controls
Method in brief: as §1

[13] = system: Matricaria inodora (MATIN); experiment: Post-emergence herbicidal action against MATIN
Method in brief: as §2

[14] = system: Abutilon theophrasti (ABUTH); experiment: Post-emergence herbicidal action against ABUTH; conditions: 320 g/ha, visual rating about 3 weeks after treatment vs untreated controls (100% = plants have died, 0% = like control plants)
Method in brief: as §2

[15] = system: Pharbitis purpurea (PHBPU); experiment: Post-emergence herbicidal action against PHBPU
Method in brief: as §2

Zea mays (ZEAMX) = conditions: pre-emergence, crop plant compatibility, in comparison to untreated controls
Method in brief: (§3)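 Scoring: visual, % of untreated control, about 3 weeks after a pre-emergence application to the soil surface. Application used WP or EC formulations diluted in water with 0.5% additive at 600 l/ha; dosage levels are marked by suffixes a, b and c.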

Glycine max (GLXMA) = conditions: pre-emergence, 80 g/ha, crop plant compatibility, in comparison to untreated controls
Method in brief: as §3

Oryza sativa (ORYSA) = conditions: crop plant compatibility
Method in brief: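 Visual rating (% effect vs. untreated plants; 100% = plant death) made about 3 weeks after treatment. Plants had been sprayed at one-leaf stage, 2–3 weeks post-sowing, with aqueous WP/EC preparations containing 0.5% additive, 600 l/ha water volume; a, b, c mark dose levels.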

Viola tricolor (VIOTR) [16] = experiment: Post-emergence herbicidal action against VIOTR; conditions: 320 g/ha
Method in brief: as §2

[17] = system: Alopecurus myosuroides (ALOMY); experiment: Post-emergence herbicidal action against ALOMY; conditions: visual rating about 3 weeks after treatment vs untreated controls (100% = plants have died, 0% = like control plants)
Method in brief: as §2

[18] = system: Digitaria sanguinalis (DIGSA); experiment: Post-emergence herbicidal action against DIGSA; conditions: visual rating about 3 weeks after treatment
Method in brief: as §2

Avena fatua (AVEFA) = experiment: Pre-emergence herbicidal action against AVEFA; conditions: visual scoring after about 3 weeks vs untreated controls
Method in brief: as §1

Lolium rigidum (LOLRI) [19] = experiment: Pre-emergence herbicidal action against LOLRI
Method in brief: as §1

[20] = system: Verconica persica (VERPE); experiment: Pre-emergence herbicidal action against VERPE; conditions: dosage 320 g/ha
Method in brief: as §1

[21] = system: Pharbitis purpurea (PHBPU); experiment: Pre-emergence herbicidal action against PHBPU; conditions: dosage 320 g/ha
Method in brief: as §1

[22] = system: Abutilon theophrasti (ABUTH); experiment: Pre-emergence herbicidal action against ABUTH; conditions: Dosage column 320 g/ha (title prints 3200 g/ha); scored visually after about 3 weeks; 100% = plants have died
Method in brief: as §1

Viola tricolor (VIOTR) [23] = experiment: Pre-emergence herbicidal action against VIOTR
Method in brief: as §1

[24] = system: Digitaria sanguinalis (DIGSA); experiment: Pre-emergence herbicidal action against DIGSA
Method in brief: as §1

[25] = system: Triticum aestivum (TRZAS); conditions: 20 g/ha; crop plant compatibility, effect vs untreated controls
Method in brief: as §3

Brassica napus (BRSNW) = conditions: 20 g/ha, crop plant compatibility, in comparison to untreated controls
Method in brief: as §3

COC(=O)CCOC(=O)COc1nn(-c2ccccn2)c(-c2ccc(F)nc2)c1F [Example I-309]
Pre-emergence action against POLCO in % ([1]; dosage 320 g/ha): 80% | Post-emergence action against AMARE in % ([2]; 80 g/ha, visual rating about 3 weeks after treatment vs untreated controls (100% = plants have died, 0% = like control plants)): 90% | Post-emergence action against AMARE in % ([2]; 320 g/ha, visual rating about 3 weeks after treatment): 90% | Pre-emergence action against SETVI in % (Setaria viridis (SETVI) [3]; dosage 320 g/ha): 90% | Pre-emergence action against ECHCG in % [4]: 80% | Pre-emergence action against ALOMY ([5]; 320 g/ha): 90% | Pre-emergence action against MATIN in % ([6]; dosage 320 g/ha): 90% | Post-emergence action against VERPE in % ([7]; 320 g/ha, VERPE): 80% | Post-emergence action against VERPE in % ([7]; dosage 80 g/ha): 80% | Post-emergence action against POLCO in % [8]: 80% | Post-emergence action against SETVI in % (Setaria viridis (SETVI) [9]; dosage 320 g/ha): 90% | Post-emergence action against ECHCG in % [10]: 90% | Post-emergence action against LOLRI in % (Lolium rigidum (LOLRI) [11]): 90% | Pre-emergence action against AMARE in % ([12]; 320 g/ha): 90% | Post-emergence action against MATIN in % ([13]; dosage 320 g/ha): 80% | Post-emergence action against ABUTH in % [14]: 80% | Post-emergence action against PHBPU in % ([15]; dosage 80 g/ha): 80% | Post-emergence action against PHBPU in % ([15]; dosage 320 g/ha): 90% | Pre-emergence action against ZEAMX in % (Zea mays (ZEAMX); 80 g/ha): 0% | Pre-emergence action against ZEAMX in % (Zea mays (ZEAMX); 320 g/ha): 10% | Pre-emergence action against GLXMA in % (Glycine max (GLXMA)): 0%

COC(=O)[C@@H](C)Oc1nn(-c2ncccc2F)c(-c2cncc(F)c2)c1Br [Example I-15]
Post-emergence action against ORYSA in % (Oryza sativa (ORYSA); 20 g/ha, effect vs untreated controls): 0% | Post-emergence action against ORYSA in % (Oryza sativa (ORYSA); 80 g/ha, effect in comparison to untreated controls): 10% | Pre-emergence action against POLCO in % ([1]; dosage 80 g/ha): 90% | Pre-emergence action against POLCO in % ([1]; dosage 320 g/ha): 100% | Pre-emergence action against SETVI in % (Setaria viridis (SETVI) [3]; dosage 80 g/ha): 100% | Pre-emergence action against SETVI in % (Setaria viridis (SETVI) [3]; dosage 320 g/ha): 100% | Post-emergence action against VIOTR in % (Viola tricolor (VIOTR) [16]): 80% | Pre-emergence action against ECHCG in % [4]: 90% | Post-emergence action against ALOMY in % ([17]; 80 g/ha): 90% | Post-emergence action against ALOMY in % ([17]; 320 g/ha): 90% | Post-emergence action against DIGSA in % ([18]; 80 g/ha): 90% | Post-emergence action against DIGSA in % ([18]; 320 g/ha): 90% | Pre-emergence action against ALOMY ([5]; 80 g/ha): 100% | Pre-emergence action against ALOMY ([5]; 320 g/ha): 100% | Pre-emergence action against AVEFA in % (Avena fatua (AVEFA); 80 g/ha): 80% | Pre-emergence action against AVEFA in % (Avena fatua (AVEFA); 320 g/ha): 100% | Pre-emergence action against LOLRI in % (Lolium rigidum (LOLRI) [19]; dosage 80 g/ha): 90% | Pre-emergence action against LOLRI in % (Lolium rigidum (LOLRI) [19]; dosage 320 g/ha): 100% | Pre-emergence action against MATIN in % ([6]; dosage 80 g/ha): 100% | Pre-emergence action against MATIN in % ([6]; dosage 320 g/ha): 100% | Post-emergence action against VERPE in % ([7]; 320 g/ha, VERPE): 80% | Post-emergence action against VERPE in % ([7]; dosage 80 g/ha): 80% | Pre-emergence action against VERPE in % [20]: 100% | Pre-emergence action against PHBPU in % [21]: 80% | Post-emergence action against SETVI in % (Setaria viridis (SETVI) [9]; dosage 80 g/ha): 80% | Post-emergence action against SETVI in % (Setaria viridis (SETVI) [9]; dosage 320 g/ha): 90% | Post-emergence action against LOLRI in % (Lolium rigidum (LOLRI) [11]): 80% | Pre-emergence action against AMARE in % ([12]; 80 g/ha): 100% | Pre-emergence action against AMARE in % ([12]; 320 g/ha): 100% | Post-emergence action against MATIN in % ([13]; dosage 80 g/ha): 80% | Post-emergence action against MATIN in % ([13]; dosage 320 g/ha): 90% | Pre-emergence action against ABUTH [22]: 90% | Pre-emergence action against VIOTR in % (Viola tricolor (VIOTR) [23]; 320 g/ha, Viola tricolor): 100% | Pre-emergence action against VIOTR in % (Viola tricolor (VIOTR) [23]; dosage 80 g/ha): 100% | Post-emergence action against PHBPU in % ([15]; dosage 320 g/ha): 90% | Pre-emergence action against DIGSA in % ([24]; 80 g/ha, visual scoring after about 3 weeks vs untreated controls): 100% | Pre-emergence action against DIGSA in % ([24]; dosage 320 g/ha): 100% | Pre-emergence action against TRZAS [25]: 10% | Pre-emergence action against BRSNW in % (Brassica napus (BRSNW)): 10%
